# Assay results taken from patent US20100144820A1, “THERAPEUTIC HPPH DOSAGE FOR PDT” (Health Research, Inc., priority 2007, published 2010).
# Where “and” joins values, the source holds several entries; their conditions need not be identical. Equal entries are not always repeated. Entries after “also recorded” stand apart in the source; their conditions may differ. Where two headings read alike, the source gives them in different places.
# How the values were obtained:
# skin = conditions: cited from earlier work
# tumor [1] = conditions: of body weight; cited from earlier work
# bronchiogenic carcinoma = assay: Interluminal HPPH-PDT treatment of bronchiogenic carcinoma; assay type: in vivo, human; conditions: 0.1 mg/kg, 75-85 J/cm, 48 HRS post injection
# Source text: Dosages are in Joules per cm length of light delivering optical fiber.
# dogs = conditions: cited from earlier work
# normal skin tissue = assay: Adverse effects for normal skin tissue exposed to 133 Joules/cm^2; assay type: in vivo, human; design: key: 1: faint erythema; 2: minimal erythema with sharp borders; 3: pronounced erythema without edema; 6: more than 10% of toxic dose causing peripheral neuropathy in animals; conditions: normal skin exposed to 133 Joules/cm^2
# Experimental: Adverse effects for normal skin tissue when exposed to 133 Joules/cm^2 (approximately equivalent to 30 minutes of midday sun exposure in Northeastern United States): 1=faint erythema; 2=minimal erythema with sharp borders; 3=pronounced erythema without edema; 6- more than 10% of toxic dose causing peripheral neuropathy in animals.
# [2] = system: advanced obstructive endobronchial lung cancer; assay: Palliative treatment of advanced obstructive endobronchial lung cancer; assay type: in vivo, human; conditions: 0.1 mg/kg; for 2 Month FU response (patients) / Long Term FU outcome (patients): 48 HRS post injection
# Experimental: Palliative Treatment of Advanced Obstructive Endobronchial Lung Cancer For relief in breathing only. Long term responses not expected due to most patients having wide spread disease outside of the area treated by HPPH in the Bronchus. All HPPH doses were 0.1 mg/kg with exposure of 100 to 140 Joules per cm of diffusion fiber at 665±5 nm Light Energy 48 HRS Post Injection.
# basal cell carcinoma = assay: Photodynamic therapy for treatment of basal cell carcinoma using HPPH; assay type: in vivo, human
# Source text: Table 1 gives results of a study of Photodynamic Therapy for the treatment of basal cell carcinoma using 2-(1-hexyloxyethyl)-2-devinyl pyropheophorbide-a (HPPH).
# All dose data converted from actual drug dose in milligrams per square meter of surface area of patient assuming a 70 kg patient having a 2 m^2 surface area.
# [3] = system: high grade dysplasia-carcinoma in Barrett's Esophagus; assay: HPPH PDT of high grade dysplasia-carcinoma in Barrett's Esophagus; assay type: in vivo, human
# Source text: Use of HPPH Photodynamic Therapy for treatment of high grade dysplasia-carcinoma in Barrett's Esophagus. All energy was at 175 Joules/cm at 665±5 nm Light Energy 48 HRS Post Injection. This was a single treatment. Based on studies with PHOTOFRIN®, it is expected that three treatments, instead of just one, would result in about an 77% cure rate.
# tumor [4] = conditions: mice, 0.05 to 0.3 mg/kg, 135 Joules/cm^2; cited from earlier work
# [5] = 0.075 mg/kg, 175 Joules/cm, 48 HRS post injection, single treatment
molecule,measurement,setting,value
porfimer sodium [PHOTOFRIN],Reported phototoxicity,"skin; 2 mg/kg dose, exposure to only 9 Joules/cm^2 of activating light",very serious erythema and necrosis
same,Lowest reasonable effective dose / required dose,tumor [1],2 mg/kg
Oc1cccc(-c2c3nc(c(-c4cccc(O)c4)c4ccc([nH]4)c(-c4cccc(O)c4)c4nc(c(-c5cccc(O)c5)c5ccc2[nH]5)CC4)C=C3)c1 [FOSCAN],Reported phototoxicity,skin; 30 minute sun exposure a full week after injection,serious erythema
"CCCCCCOC(C)c1c(C)c2cc3nc(c4c5[nH]c(cc6nc(cc1[nH]2)C(C)=C6CC)c(C)c5C(=O)C4)C(CCC(=O)O)C3C (stereo not drawn) [HPPH, 2-(1-hexyloxy)-2-ethyl-derivative of pyropheophorbide-a]",Systemic or phototoxic side effects,bronchiogenic carcinoma,No observable systemic or phototoxic side effects
same,Toxicity finding at lowest toxic dose,"dogs; about 1.5 mg/kg in 0.1% Tween 80, test animals, toxicity said due to surfactant",neuropathy is common
same,Lowest toxic dose,"dogs; in 0.1% Tween 80 (polysorbate 80) surfactant solution, dogs",about 1.5 mg/kg
same,Adverse Effects Noted,normal skin tissue; 0.05 mg/kg* (interpolated from 48 hr data),1
same,Adverse Effects Noted,normal skin tissue; 0.07 mg/kg* (interpolated from 48 hr data),1
same,Adverse Effects Noted,normal skin tissue; 0.07 mg/kg,1
same,Adverse Effects Noted,normal skin tissue; 0.09 mg/kg,1
same,Adverse Effects Noted,normal skin tissue; 0.12 mg/kg* control (interpolated from 48 hr data),3 and 2
same,Adverse Effects Noted,normal skin tissue; 0.17 mg/kg control,3-6 and 2-6
same,2 Month FU response (patients),[2]; 100 J/cm,1 CR/2 PR
same,Long Term FU outcome (patients),[2]; 100 J/cm,1 disease
same,Outcome upon long term follow up,[2]; 100 to 140 Joules per cm,one was disease free
same,Systemic or phototoxic side effects,[2]; 100 to 140 Joules per cm,No observable systemic or phototoxic side effects
same,2 Month FU response (patients),[2]; 110 J/cm,3 PR
same,2 Month FU response (patients),[2]; 130 J/cm,2 CR/1 PR
same,Long Term FU outcome (patients),[2]; 130 J/cm,2 new
same,2 Month FU response (patients),[2]; 140 J/cm,1 CR
same,Long Term FU outcome (patients),[2]; 140 J/cm,1 new
same,Palliative response (improved ability to breathe),"[2]; all cases, 100 to 140 Joules per cm",at least partial palliative response
same,Result of treatment of basal cell carcinoma,"basal cell carcinoma; 0.05 mg/kg*, 150 J/cm^2 @24 hr*, interpolated from 48 hr data",Complete
same,Result of treatment of basal cell carcinoma,"basal cell carcinoma; 0.05 mg/kg*, 200 J/cm^2 @24 hr*, interpolated from 48 hr data",Complete
same,Result of treatment of basal cell carcinoma,"basal cell carcinoma; 0.07 mg/kg*, 150 J/cm^2 @24 hr*, interpolated from 48 hr data",Complete
same,Result of treatment of basal cell carcinoma,"basal cell carcinoma; 0.07 mg/kg*, 200 J/cm^2 @24 hr*, interpolated from 48 hr data",Complete
same,Result of treatment of basal cell carcinoma,"basal cell carcinoma; 0.07 mg/kg, 50 J/cm^2 @24 hr",Fail and Partial and Complete
same,Result of treatment of basal cell carcinoma,"basal cell carcinoma; 0.07 mg/kg, 100 J/cm^2 @24 hr",Complete
same,Result of treatment of basal cell carcinoma,"basal cell carcinoma; 0.07 mg/kg, 150 J/cm^2 @48 hr",Complete
same,Result of treatment of basal cell carcinoma,"basal cell carcinoma; 0.07 mg/kg, 200 J/cm^2 @48 hr",Complete
same,Result of treatment of basal cell carcinoma,"basal cell carcinoma; 0.09 mg/kg, 50 J/cm^2 @24 hr",Partial; also recorded: Complete
same,Result of treatment of basal cell carcinoma,"basal cell carcinoma; 0.09 mg/kg, 100 J/cm^2 @24 hr",Complete; also recorded: Partial
same,Result of treatment of basal cell carcinoma,"basal cell carcinoma; 0.09 mg/kg, 150 J/cm^2 @48 hr",Complete
same,Result of treatment of basal cell carcinoma,"basal cell carcinoma; 0.09 mg/kg, 200 J/cm^2 @48 hr",Complete
same,2 mo/FU response (patients),[3]; [5],3 PR/2 CR
same,Long Term/FU response (patients),[3]; [5],3 PR/2 CR
same,2 mo/FU response (patients),"[3]; 0.1 mg/kg, 175 Joules/cm, 48 HRS post injection, single treatment",4 PR/3 CR
same,Expected cure rate,"[3]; three treatments instead of one, expected based on studies with PHOTOFRIN",~77%
same,Long term tumor response,tumor [4],no or extremely little long term tumor response
